Test results taken from ChEMBL document CHEMBL1201862, “PubChem BioAssay data set” (2004).
Values joined by “and” are separate entries in the source; they are usually repeats but may differ in a detail not shown here. Identical values can stand only once. Active and inactive are the calls of the source.

Legend:
Estrogen receptor beta [1] = target: T1, Estrogen receptor beta (Homo sapiens, UniProt Q92731); assay: blockers of SRC-3 recruitment to ERβ – biochemical, ELISA, streptavidin-HRP readout, orthogonal assay, confirmation (AID 1060)
T1 sequence (Q92731 whole entry): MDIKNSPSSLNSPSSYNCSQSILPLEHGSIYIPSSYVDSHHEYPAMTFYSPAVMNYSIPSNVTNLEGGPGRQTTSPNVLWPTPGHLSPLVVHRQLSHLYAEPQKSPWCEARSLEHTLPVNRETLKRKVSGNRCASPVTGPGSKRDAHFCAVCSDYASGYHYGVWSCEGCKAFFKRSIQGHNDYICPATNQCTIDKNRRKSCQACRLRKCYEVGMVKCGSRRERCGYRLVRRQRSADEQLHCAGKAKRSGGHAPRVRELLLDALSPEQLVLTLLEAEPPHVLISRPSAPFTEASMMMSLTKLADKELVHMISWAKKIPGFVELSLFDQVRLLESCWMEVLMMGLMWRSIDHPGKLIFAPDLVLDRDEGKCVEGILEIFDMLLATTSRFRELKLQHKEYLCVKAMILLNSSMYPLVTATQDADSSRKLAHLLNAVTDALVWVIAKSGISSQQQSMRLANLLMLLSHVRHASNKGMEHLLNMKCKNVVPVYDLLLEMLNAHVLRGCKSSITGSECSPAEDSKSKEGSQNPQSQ

[2] = target: T2, Histone-lysine N-methyltransferase NSD2 (Homo sapiens, UniProt O96028); format: biochemical
T2 sequence (O96028 whole entry): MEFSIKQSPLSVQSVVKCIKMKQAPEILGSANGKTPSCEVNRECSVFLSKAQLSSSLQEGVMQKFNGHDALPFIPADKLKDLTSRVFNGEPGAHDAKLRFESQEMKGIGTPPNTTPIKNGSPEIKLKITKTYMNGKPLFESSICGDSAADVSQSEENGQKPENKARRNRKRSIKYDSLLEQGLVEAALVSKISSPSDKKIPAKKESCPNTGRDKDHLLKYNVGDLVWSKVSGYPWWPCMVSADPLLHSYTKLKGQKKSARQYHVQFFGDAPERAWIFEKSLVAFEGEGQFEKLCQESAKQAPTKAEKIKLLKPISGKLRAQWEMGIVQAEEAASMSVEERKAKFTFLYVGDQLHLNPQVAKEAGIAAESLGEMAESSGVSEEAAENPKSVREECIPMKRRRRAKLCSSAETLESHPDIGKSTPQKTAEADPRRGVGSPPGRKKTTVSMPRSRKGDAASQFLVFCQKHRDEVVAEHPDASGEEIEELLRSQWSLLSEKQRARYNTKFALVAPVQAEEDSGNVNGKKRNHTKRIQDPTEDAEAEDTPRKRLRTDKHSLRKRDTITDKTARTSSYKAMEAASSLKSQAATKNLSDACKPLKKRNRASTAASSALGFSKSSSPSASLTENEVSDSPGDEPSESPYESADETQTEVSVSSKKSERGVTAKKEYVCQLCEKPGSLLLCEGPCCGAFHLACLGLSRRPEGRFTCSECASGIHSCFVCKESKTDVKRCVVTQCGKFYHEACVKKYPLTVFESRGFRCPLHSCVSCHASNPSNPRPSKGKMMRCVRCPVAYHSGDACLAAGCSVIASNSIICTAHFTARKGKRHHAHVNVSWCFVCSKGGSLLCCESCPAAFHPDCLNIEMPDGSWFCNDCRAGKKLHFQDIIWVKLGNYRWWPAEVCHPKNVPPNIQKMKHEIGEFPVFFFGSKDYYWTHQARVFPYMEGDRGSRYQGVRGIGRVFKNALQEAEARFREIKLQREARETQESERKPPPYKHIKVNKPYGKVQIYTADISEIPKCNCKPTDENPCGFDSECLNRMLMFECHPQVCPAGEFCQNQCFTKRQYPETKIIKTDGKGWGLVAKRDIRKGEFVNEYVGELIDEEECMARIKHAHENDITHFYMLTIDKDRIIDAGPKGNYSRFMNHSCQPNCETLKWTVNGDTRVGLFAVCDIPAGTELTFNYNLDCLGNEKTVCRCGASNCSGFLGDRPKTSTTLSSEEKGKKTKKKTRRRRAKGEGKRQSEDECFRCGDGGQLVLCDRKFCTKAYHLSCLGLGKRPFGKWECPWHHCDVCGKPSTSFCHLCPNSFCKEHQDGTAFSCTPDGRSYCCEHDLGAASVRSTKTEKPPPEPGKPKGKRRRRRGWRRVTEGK

Estrogen receptor = target: T3, Estrogen receptor (Homo sapiens, UniProt P03372);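 note: potency for inhibiting coactivator peptide recruitment to the receptor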
T3 sequence (P03372 whole entry): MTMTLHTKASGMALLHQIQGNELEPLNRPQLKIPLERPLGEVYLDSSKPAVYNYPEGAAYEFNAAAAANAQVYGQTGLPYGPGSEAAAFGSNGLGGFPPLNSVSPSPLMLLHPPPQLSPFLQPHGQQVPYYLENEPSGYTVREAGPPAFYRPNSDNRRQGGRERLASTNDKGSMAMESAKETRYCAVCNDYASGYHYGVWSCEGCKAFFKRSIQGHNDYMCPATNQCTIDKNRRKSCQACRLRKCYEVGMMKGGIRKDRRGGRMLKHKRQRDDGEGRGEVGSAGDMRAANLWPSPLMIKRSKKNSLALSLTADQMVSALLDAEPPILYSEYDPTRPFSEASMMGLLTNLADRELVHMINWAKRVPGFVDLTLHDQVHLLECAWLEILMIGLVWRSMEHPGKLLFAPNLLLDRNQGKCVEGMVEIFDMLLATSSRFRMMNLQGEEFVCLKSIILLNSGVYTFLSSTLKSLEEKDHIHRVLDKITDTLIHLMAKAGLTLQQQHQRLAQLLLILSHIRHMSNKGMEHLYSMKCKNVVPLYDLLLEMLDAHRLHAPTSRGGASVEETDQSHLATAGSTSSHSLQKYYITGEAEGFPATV

[3] = target: Low molecular weight phosphotyrosine protein phosphatase (Homo sapiens, UniProt P24666); format: functional; conditions: read-out: IC50_Mean;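 note: Dose-response confirmation assay measuring inhibition of LMPTP enzyme activity by fluorescence intensity read-out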
Estrogen receptor beta [4] = target: T1, Estrogen receptor beta
Insulin-degrading enzyme [5] = target: T4, Insulin-degrading enzyme (Homo sapiens, UniProt P14735); assay: recombinant IDE activation, cell-free – biochemical, fluorescence polarization, counter-screen for IDE activator project, dose response (AID 588681)
T4 sequence (P14735 whole entry): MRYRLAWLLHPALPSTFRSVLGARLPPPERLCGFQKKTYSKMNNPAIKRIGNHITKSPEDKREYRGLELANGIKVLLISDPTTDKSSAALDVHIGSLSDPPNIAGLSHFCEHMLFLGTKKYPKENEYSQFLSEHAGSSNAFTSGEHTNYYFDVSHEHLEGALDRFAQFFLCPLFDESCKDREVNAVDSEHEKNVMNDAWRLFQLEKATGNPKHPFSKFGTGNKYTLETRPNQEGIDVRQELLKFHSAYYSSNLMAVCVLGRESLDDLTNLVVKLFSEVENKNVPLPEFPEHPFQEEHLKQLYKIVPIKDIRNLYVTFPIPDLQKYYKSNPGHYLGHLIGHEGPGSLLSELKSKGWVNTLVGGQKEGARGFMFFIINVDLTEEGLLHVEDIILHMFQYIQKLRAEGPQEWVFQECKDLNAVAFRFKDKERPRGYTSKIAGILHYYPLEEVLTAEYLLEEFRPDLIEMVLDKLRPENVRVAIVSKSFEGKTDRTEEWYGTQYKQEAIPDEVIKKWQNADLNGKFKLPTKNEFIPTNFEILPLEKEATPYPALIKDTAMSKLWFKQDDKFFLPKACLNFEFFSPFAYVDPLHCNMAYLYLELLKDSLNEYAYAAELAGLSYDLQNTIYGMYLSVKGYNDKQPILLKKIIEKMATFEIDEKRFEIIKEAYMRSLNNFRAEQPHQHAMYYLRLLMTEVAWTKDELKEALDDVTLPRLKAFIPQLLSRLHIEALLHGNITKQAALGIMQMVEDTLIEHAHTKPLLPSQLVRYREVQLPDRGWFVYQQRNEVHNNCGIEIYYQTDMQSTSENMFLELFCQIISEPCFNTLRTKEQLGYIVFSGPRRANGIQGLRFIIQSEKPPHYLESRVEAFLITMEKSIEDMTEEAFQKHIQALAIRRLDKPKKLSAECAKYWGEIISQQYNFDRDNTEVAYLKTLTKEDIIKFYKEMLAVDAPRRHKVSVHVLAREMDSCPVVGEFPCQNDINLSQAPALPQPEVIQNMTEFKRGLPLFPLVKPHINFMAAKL

HEK293 [6] = assay: membrane integrity loss in HEK cells – cell-based, fluorescence, cytotoxicity control for IDE activator project, dose response (AID 588440); format: functional; conditions: Homo sapiens;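 note: cytotoxicity by LDH release measuring loss of membrane integrity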
Insulin-degrading enzyme [7] = target: T4, Insulin-degrading enzyme; assay: cellular IDE activation of Abeta substrate cleavage – fluorescence polarization, HEK cells, dose response (AID 588439); format: functional, cell-based
HEK293 [8] = assay: optical interference in Abeta FP readout, dose response, artefact control for IDE activator project, biochemical, fluorescence polarization (AID 588442); format: functional, cell-based; conditions: Homo sapiens
Vero [9] = assay: cells; format: functional, cell-based; conditions: Chlorocebus sabaeus
[10] = viability of uninfected HEp-2 cells – cell-based, HTS, cytotoxicity control for RSV inhibitor project, dose response (AID 2410); format: functional; conditions: human respiratory syncytial virus
Vero [11] = assay: cells; format: functional; conditions: Chlorocebus sabaeus
[12] = target: T5, Voltage-gated N-type calcium channel alpha-1B subunit/Amyloid beta A4 precursor protein-binding family A member 1 (Homo sapiens, UniProt Q00975+Q02410); assay: disruptors of Mint-PDZ/N-type channel peptide interaction – biochemical, HTRF, SAR follow-up (AID 2489); format: functional
T5 sequence (Q00975 whole entry, the tested form may be a part): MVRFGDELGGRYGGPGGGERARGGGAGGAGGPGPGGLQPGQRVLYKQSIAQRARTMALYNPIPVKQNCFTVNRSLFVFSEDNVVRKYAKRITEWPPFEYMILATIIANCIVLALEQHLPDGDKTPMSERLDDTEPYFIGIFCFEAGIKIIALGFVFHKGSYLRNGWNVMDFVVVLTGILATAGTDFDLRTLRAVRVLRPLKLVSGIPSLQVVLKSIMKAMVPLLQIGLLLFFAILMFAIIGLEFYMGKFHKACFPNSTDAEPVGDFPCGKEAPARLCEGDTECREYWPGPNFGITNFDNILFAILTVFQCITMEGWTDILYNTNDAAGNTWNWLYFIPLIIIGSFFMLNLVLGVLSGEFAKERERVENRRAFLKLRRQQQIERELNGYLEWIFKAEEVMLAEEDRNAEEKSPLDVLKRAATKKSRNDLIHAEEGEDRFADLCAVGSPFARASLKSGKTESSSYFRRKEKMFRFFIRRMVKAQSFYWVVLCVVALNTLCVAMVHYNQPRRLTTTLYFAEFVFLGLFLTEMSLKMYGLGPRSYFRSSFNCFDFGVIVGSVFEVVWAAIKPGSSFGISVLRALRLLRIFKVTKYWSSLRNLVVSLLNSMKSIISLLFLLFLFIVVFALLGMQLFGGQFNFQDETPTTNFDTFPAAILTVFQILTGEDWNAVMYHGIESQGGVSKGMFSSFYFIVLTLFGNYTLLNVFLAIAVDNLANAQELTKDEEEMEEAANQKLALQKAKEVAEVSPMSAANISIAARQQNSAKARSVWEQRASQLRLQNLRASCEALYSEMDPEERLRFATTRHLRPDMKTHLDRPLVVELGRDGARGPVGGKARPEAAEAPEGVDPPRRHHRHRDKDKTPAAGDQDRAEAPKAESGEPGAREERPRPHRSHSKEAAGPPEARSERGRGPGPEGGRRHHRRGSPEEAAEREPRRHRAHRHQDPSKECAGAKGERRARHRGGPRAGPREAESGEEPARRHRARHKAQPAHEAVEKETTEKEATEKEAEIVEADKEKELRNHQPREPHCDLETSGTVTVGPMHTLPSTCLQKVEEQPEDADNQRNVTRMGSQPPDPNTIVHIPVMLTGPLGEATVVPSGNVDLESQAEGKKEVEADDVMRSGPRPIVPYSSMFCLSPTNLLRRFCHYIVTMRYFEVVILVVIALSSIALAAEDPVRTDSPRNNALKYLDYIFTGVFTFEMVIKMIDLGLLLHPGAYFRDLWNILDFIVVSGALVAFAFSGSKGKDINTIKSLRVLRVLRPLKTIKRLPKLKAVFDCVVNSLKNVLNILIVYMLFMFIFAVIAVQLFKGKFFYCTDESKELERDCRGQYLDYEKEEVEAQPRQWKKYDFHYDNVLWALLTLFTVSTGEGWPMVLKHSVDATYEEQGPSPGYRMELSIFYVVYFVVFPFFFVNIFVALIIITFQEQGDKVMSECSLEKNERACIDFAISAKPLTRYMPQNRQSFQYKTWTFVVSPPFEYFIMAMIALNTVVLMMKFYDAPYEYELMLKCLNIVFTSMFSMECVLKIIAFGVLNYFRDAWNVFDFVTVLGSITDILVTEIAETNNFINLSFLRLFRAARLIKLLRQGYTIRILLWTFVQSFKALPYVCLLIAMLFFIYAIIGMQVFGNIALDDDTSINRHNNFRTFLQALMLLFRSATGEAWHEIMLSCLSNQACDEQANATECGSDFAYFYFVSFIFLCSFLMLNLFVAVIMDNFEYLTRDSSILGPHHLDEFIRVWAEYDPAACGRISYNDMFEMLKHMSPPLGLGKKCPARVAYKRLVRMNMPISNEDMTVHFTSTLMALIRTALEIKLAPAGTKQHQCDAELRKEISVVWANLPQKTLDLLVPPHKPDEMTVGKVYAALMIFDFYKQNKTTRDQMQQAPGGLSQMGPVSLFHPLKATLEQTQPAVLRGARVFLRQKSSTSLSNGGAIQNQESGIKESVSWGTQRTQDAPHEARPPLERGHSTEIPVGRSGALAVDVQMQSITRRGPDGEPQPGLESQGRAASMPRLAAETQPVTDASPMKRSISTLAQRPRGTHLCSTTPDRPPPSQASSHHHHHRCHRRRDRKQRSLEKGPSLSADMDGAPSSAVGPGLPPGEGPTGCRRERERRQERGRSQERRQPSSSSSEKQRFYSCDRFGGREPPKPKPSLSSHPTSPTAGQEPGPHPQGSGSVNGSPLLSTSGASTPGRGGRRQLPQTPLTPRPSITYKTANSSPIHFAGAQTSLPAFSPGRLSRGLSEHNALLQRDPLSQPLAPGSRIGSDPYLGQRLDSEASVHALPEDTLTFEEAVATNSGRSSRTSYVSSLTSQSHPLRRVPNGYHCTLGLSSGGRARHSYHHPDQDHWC
T5 sequence (Q02410 whole entry, the tested form may be a part): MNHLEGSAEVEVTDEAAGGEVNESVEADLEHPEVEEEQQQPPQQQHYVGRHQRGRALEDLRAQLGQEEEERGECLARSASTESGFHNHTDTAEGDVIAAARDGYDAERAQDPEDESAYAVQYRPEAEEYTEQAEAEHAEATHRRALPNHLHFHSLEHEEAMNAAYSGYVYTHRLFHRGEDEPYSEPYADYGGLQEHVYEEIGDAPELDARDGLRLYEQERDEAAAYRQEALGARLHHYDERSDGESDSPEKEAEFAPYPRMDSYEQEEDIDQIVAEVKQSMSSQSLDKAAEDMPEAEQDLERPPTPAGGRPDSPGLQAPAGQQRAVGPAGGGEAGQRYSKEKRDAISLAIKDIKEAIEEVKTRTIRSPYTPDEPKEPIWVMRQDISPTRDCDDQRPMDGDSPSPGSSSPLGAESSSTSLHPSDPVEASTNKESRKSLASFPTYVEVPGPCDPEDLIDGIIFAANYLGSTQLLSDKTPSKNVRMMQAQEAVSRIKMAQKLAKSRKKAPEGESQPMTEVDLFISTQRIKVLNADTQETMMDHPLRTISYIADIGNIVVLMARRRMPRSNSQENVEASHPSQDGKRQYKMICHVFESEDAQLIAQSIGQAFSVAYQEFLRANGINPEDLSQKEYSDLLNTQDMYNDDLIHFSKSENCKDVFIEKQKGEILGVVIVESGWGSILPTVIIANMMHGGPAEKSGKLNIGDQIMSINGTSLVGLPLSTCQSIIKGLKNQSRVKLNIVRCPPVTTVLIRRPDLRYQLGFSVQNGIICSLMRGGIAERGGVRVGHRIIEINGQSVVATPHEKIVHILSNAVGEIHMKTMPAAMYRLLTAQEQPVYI

[13] = target: T6, Carboxy-terminal domain RNA polymerase II polypeptide A small phosphatase 1 (Homo sapiens, UniProt Q9GZU7); assay: CTDSP1 inhibitors, concentration-response, biochemical, absorbance readout, ultra-high-throughput screen actives (AID 540297); format: functional
T6 sequence (Q9GZU7 whole entry): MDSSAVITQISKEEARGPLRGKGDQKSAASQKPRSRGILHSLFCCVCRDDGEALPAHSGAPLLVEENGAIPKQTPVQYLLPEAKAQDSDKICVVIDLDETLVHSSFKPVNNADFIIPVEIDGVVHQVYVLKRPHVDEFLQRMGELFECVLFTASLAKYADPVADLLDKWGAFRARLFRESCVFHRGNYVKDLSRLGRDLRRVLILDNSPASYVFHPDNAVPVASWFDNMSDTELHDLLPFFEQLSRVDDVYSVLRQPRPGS

[14] = target: Potassium voltage-gated channel subfamily KQT member 2 (Rattus norvegicus, UniProt O88943); assay: blockers of KCNQ2 channel current – cell-based, automated electrophysiology, set II, rat KCNQ2, dose response (AID 588637); format: functional
Potassium voltage-gated channel subfamily KQT member 2, sequence (O88943 whole entry): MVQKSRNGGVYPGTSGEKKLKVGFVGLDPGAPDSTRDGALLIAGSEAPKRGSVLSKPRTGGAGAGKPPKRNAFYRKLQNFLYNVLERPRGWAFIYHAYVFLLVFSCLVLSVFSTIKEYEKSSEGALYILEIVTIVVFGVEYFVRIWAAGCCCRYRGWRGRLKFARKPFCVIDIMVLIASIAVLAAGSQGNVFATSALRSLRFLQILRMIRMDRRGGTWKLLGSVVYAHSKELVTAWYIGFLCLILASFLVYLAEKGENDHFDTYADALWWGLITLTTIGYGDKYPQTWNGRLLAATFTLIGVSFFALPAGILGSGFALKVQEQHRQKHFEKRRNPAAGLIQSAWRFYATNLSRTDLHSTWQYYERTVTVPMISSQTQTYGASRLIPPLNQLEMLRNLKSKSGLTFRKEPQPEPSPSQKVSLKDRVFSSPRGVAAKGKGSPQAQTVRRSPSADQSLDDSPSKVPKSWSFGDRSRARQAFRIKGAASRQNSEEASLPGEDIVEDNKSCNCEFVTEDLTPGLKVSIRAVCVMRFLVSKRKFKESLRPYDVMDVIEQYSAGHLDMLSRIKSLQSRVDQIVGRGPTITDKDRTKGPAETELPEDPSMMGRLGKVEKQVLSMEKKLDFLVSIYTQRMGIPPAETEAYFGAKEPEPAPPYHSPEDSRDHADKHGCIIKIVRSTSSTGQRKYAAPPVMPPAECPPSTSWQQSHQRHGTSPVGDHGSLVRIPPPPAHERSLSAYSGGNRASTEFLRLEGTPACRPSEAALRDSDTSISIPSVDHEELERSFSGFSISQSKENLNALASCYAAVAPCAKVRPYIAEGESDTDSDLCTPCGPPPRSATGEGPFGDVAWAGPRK

SUMO E1/E2 = SUMO E1/E2 (Homo sapiens, UniProt P63279+Q9UBE0+Q9UBT2); assay: SAR analysis of SUMOylation using HTRF in an in-Vitro dose response assay. [Related pubchem assays (depositor defined):AID2006, AID2011, AID2018, AID2069, AID2658]; format: functional
[15] = target: T5, Voltage-gated N-type calcium channel alpha-1B subunit/Amyloid beta A4 precursor protein-binding family A member 1; assay: disruptors of Mint-PDZ/N-type channel peptide interaction – biochemical, HTRF, set 2, SAR follow-up (AID 434980); format: functional
[16] = target: T7, Apoptotic protease-activating factor 1 (Homo sapiens, UniProt O14727); assay: SAR analysis of small molecule Activators of Apaf-1 in a Fluorescent assay.; format: functional; conditions: read-out: EC50_Mean;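 note: caspase-3 cleavage of fluorogenic Rh110 DEVD substrate downstream of apoptosome activation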
T7 sequence (O14727 whole entry): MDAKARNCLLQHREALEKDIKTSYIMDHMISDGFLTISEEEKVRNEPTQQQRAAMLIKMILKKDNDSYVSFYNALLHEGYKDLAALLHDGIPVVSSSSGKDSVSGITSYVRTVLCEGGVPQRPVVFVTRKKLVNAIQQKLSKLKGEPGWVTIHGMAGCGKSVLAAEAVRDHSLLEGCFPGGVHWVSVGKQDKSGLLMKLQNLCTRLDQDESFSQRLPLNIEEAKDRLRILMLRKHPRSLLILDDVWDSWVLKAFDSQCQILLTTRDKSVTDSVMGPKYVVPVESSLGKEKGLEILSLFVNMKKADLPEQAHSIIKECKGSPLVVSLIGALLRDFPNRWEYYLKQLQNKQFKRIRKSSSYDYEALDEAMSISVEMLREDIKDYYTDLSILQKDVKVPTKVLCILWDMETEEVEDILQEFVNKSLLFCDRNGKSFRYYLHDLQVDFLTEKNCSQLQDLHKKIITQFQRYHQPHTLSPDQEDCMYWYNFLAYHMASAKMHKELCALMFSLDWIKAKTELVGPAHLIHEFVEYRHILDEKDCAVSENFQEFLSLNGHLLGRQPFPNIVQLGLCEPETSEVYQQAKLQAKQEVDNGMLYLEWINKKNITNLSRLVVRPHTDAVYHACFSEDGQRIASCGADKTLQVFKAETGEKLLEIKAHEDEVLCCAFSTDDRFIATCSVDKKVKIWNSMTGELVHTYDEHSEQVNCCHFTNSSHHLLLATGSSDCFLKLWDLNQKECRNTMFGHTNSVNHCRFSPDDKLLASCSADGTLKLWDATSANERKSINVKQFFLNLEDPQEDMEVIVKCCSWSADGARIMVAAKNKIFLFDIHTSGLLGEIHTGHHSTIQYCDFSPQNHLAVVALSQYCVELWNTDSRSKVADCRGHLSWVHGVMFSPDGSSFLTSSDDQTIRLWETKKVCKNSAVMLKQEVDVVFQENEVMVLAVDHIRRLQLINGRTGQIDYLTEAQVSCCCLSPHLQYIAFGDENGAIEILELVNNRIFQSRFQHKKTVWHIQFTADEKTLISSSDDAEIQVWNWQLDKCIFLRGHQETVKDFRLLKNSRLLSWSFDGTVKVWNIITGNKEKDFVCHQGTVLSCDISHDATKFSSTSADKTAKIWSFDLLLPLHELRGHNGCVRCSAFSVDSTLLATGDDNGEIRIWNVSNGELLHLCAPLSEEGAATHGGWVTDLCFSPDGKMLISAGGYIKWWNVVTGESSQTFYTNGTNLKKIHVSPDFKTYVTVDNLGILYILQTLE

Activin receptor type-1 = Activin receptor type-1 (Homo sapiens, UniProt Q04771); assay: Navigating the Kinome. Panel member name: ACVR1; format: functional
Activin receptor type-1, sequence (Q04771 whole entry): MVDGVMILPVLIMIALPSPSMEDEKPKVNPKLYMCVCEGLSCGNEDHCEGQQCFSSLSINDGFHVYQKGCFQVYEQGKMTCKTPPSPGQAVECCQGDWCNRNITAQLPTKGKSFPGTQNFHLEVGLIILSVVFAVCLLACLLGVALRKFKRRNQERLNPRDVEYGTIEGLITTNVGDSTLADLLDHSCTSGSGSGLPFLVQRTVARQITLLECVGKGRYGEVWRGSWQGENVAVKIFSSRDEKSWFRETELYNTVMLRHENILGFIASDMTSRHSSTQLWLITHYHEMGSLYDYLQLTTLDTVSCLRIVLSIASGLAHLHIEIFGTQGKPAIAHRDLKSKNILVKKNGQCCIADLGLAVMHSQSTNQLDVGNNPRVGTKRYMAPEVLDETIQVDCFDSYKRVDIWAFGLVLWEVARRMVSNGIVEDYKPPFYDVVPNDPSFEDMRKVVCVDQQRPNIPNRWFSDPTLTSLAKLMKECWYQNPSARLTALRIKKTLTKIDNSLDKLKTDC

In the case of `CCN(c1ccccc1)S(=O)(=O)c1cc(C(=O)O)ccc1C`, the IC50 (Estrogen receptor beta [1]) is reported as 1.83 µM (not active), the AC50 [2] is reported as 9.26 µM (active) and the IC50 (Estrogen receptor) is reported as 13.1 µM (active). For the same molecule, the IC50 [3] was 21 µM (inactive) and the IC50 (Estrogen receptor beta [4]) was 6.12 µM (active).

With `CCc1nnc(NS(=O)(=O)c2ccc(N/C=C3/C(=O)NC(=O)N(c4ccc(Cl)cc4)C3=O)cc2)s1` the EC50 (Insulin-degrading enzyme [5]) was > 54.7 µM (inactive), the IC50 (HEK293 [6]) was > 89.2 µM (inactive) and the EC50 (Insulin-degrading enzyme [7]) was > 54.7 µM (inactive). The EC50 (HEK293 [8]) was > 54.7 µM (inactive).

For `O=C(O)c1ccccc1Nc1ccc([N+](=O)[O-])cc1`, the EC50 (Insulin-degrading enzyme [5]) was 14 µM (inactive), the IC50 (HEK293 [6]) was > 89.1 µM (inactive) and the IC50 (Vero [9]) was 8.6 µM (active). The EC50 (Insulin-degrading enzyme [7]) was 7.99 µM (active), the IC50 (cells) was 2.4 µM (active) and the EC50 (HEK293 [8]) was 6.88 µM (active). For the same molecule, the CC50 [10] was 8.65 µM (active) and the CC50 (Vero [11]) was > 25 µM (active).

For `COc1ccc(CCNC(=O)c2cc(-c3ccco3)nc3ccccc23)cc1`, the IC50 [12] was 17.3 µM (active) and > 56.8 µM (inactive), the IC50 [13] was 4.22 µM (active) and the IC50 [14] was 4.08 µM (active). The IC50 (SUMO E1/E2) was 16.5 µM (active) and the IC50 [15] was 12.8 µM (active) and > 56.8 µM (inactive).

With `CC(Cc1ccc2c(c1)OCO2)C(=O)O` (centres undefined) the EC50 [16] was > 100 µM (inactive).

For `O=C1Cc2c([nH]c3ccc([N+](=O)[O-])cc23)-c2ccccc2N1` [ALSTERPAULLONE], the Ki (Activin receptor type-1) was 0.0631 µM (active).
